Literature values in patent EP4692316A1, “MICROCARRIER FOR CELL CULTURE, METHOD FOR PREPARING MICROCARRIER FOR CELL CULTURE, AND CELL CULTURE COMPOSITION USING SAME” (LG Chem, Ltd., priority 2024, dated 2025).

Details: monomer or oil as supplied

SMILES	density [g/mL]
C=Cc1ccc(C)cc1C [2,4-Dimethylstyrene]	0.906
C=Cc1ccc(C(C)(C)C)cc1 [4-tert-butyl styrene]	0.875
C=Cc1ccc(C)cc1 [methylstyrene]	0.89 to 0.92
C=Cc1c(C)cc(C)cc1C [trimethylstyrene]	0.906
